Holding throughout (assay): HotSpot kinase profiling
Common to all, as to format: biochemical

The target of one assay is T1, MLCK/MYLK (Homo sapiens, UniProt Q15746).
T1 construct: purchased Reaction Biology Corp
The procedure, abridged: (§1)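 Percent inhibition, averaged when run more than once and referenced to a DMSO negative control, came from a radioactive filter-binding readout on P81 paper. Reactions of kinase with freshly made substrate and cofactors ran for 2 h at room temperature.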

Another assay addresses T2, MST1/STK4 (Homo sapiens, UniProt Q13043).
T2 construct: purchased Reaction Biology Corp
T2 sequence (Q13043 1-487): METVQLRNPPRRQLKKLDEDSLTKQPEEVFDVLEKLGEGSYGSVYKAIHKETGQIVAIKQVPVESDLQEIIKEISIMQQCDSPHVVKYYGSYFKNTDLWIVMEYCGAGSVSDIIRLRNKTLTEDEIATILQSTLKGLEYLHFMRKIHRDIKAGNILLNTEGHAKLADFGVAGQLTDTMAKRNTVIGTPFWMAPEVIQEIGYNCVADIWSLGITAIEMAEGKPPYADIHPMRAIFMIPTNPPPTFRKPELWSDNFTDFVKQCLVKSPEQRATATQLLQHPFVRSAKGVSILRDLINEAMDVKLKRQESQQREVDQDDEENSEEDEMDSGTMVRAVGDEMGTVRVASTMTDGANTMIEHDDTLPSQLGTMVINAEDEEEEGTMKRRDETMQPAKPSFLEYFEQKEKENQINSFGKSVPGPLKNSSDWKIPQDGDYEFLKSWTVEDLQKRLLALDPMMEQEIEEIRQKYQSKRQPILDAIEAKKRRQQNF
Put shortly:
as §1

The target of another assay is T3, NEK2 (Homo sapiens, UniProt P51955).
T3 construct: purchased Reaction Biology Corp
T3 sequence (P51955 1-445): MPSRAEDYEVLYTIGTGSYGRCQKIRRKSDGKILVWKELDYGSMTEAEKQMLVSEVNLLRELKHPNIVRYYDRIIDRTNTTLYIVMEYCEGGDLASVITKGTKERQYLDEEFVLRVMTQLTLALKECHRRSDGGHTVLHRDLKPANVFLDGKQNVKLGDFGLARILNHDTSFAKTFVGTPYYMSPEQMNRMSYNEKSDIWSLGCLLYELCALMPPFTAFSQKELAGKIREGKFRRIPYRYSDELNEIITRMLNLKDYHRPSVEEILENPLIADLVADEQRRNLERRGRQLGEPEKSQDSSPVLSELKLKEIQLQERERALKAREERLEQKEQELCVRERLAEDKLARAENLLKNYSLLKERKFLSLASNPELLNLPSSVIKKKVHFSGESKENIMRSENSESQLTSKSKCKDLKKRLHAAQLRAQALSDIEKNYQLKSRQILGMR
The procedure, abridged: as §1

The target in another assay is T4, P38d/MAPK13 (Homo sapiens, UniProt O15264).
T4 construct: purchased Reaction Biology Corp
T4 sequence (O15264 1-365): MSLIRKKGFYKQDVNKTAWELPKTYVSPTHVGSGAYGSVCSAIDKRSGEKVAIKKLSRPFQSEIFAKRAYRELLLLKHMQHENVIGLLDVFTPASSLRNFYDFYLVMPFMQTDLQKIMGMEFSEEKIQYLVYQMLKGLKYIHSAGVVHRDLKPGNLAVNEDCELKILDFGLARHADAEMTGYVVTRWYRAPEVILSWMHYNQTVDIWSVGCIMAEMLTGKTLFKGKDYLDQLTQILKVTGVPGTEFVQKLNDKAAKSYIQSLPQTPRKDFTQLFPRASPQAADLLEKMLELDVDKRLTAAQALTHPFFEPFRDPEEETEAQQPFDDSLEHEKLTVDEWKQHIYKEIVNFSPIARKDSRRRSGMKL
The procedure, abridged:
as §1

In another assay the target is T5, PBK/TOPK (Homo sapiens, UniProt Q96KB5).
T5 construct: purchased Reaction Biology Corp
T5 sequence (Q96KB5 1-322): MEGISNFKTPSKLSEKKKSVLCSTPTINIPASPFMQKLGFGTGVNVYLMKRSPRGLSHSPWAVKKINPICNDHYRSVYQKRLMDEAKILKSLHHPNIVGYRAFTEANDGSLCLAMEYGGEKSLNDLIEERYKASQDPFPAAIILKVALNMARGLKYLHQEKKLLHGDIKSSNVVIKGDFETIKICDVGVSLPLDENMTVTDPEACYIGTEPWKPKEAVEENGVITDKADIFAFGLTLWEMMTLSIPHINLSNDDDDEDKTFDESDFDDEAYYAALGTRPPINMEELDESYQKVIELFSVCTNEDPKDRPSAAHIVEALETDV
The procedure, abridged:
as §1

For another assay, the target named is T6, SIK1 (Homo sapiens, UniProt P57059).
T6 construct: purchased Reaction Biology Corp
Put shortly: as §1

A further assay has as its target T7, STK22D/TSSK1 (Homo sapiens, UniProt Q9BXA7).
T7 construct: purchased Reaction Biology Corp
T7 sequence (Q9BXA7 1-367): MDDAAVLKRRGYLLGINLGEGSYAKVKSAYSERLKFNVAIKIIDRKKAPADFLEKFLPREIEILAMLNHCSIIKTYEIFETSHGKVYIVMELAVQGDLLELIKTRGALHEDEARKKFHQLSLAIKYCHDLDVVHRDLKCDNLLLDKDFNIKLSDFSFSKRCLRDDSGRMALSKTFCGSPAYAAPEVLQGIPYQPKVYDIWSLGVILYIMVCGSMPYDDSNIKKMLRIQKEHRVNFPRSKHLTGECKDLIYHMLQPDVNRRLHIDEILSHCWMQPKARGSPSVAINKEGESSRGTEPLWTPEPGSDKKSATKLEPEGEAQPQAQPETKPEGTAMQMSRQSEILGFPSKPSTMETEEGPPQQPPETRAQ
Put shortly: as §1

[1] abbreviates: read-out: % Enzyme Activity (relative to DMSO controls) Run 1.
Where [2] appears, read: read-out: % Enzyme Activity (relative to DMSO controls) Run 2.

Like-named read-outs stand apart in the source and are kept apart here.

Among the data in US9492471B2, “Methods of treating a disease or disorder associated with Bruton'S Tyrosine Kinase” (Celgene Avilomics Research, Inc., priority 2013, dated 2016) are inhibition and remaining activity values, retold here.

The term inhibition denotes the change of the read-out against control, counted positive when it falls.

T6 sequence (P57059 whole entry): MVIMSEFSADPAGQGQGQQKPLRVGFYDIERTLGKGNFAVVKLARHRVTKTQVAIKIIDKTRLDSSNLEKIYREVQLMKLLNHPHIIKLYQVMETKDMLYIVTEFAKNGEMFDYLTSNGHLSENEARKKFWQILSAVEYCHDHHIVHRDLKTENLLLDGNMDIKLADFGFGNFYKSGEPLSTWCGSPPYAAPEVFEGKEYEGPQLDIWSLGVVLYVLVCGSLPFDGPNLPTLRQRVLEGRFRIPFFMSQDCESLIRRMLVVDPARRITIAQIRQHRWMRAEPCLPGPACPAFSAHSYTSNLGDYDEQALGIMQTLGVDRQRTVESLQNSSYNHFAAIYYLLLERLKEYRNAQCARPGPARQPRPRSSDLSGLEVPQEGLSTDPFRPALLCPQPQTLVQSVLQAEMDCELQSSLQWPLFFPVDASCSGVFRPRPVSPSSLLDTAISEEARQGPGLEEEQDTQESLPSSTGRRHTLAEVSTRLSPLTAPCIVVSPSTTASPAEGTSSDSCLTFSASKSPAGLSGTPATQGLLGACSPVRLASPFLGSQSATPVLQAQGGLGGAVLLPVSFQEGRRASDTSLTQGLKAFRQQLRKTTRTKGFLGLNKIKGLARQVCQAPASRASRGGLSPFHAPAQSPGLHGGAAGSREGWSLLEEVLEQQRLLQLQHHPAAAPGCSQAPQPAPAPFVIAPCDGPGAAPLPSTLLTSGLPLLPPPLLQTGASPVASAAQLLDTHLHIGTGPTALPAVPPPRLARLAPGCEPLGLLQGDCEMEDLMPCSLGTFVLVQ

Regarding `C=CC(=O)Nc1cccc(Nc2nc(Nc3ccc(OCCOC)c(F)c3)ncc2F)c1` [Compound 2], the inhibition at 3 µM on MLCK/MYLK is 4.59%; against MST1/STK4, 30.6%; against NEK2 it was -4.44%; against P38d/MAPK13 it was 0.64%; on PBK/TOPK it was 3.07%; on SIK1, 51.4%. Also, the inhibition at 3 µM against STK22D/TSSK1 amounted to 11.1%. For the same compound, the remaining activity at 3 µM at MLCK/MYLK (setting [1]) turned out to be 95.6%; on MLCK/MYLK (setting [2]), 95.2%; on MST1/STK4 (setting [1]) it was 70.2%; at MST1/STK4 (setting [2]) it was 68.7%; on NEK2 (setting [1]), 102%; on NEK2 (setting [2]), 107%. Moreover, the remaining activity at 3 µM at P38d/MAPK13 (setting [1]) is 98.9%; on P38d/MAPK13 (setting [2]), 99.8%; on PBK/TOPK (setting [1]), 98.6%; at PBK/TOPK (setting [2]), 95.3%; at SIK1 (setting [1]) it was 48.4%; at SIK1 (setting [2]), 48.7%. In addition, the remaining activity at 3 µM on STK22D/TSSK1 (setting [1]) was found to be 88%; on STK22D/TSSK1 (setting [2]), 89.7%.
